{"source": "patent US20170196913A1", "about": "“ENHANCEMENT OF GLUCOSE-STIMULATED INSULIN SECRETION BY CELLS THROUGH INDUCTION OF CELLULAR SENESCENCE” (YISSUM RESEARCH DEVELOPMENT COMPANY OF THE HEBREW …, priority 2016, published 2017)", "type_in_all_cases": "cell-based, human", "key": {"EndoC-βH2 cells [1]": {"system": "EndoC-βH2 cells", "test": "Cell size (FSC) by FACS of Cre-infected EndoC-βH2 cells", "conditions": "EndoC-βH2 cells three weeks after Cre infection, 250 nM Torin1 versus vehicle"}, "EndoC-βH2 cells [2]": {"system": "EndoC-βH2 cells", "test": "Glucose stimulated insulin secretion (GSIS) of Cre-infected EndoC-βH2 cells, ELISA", "set-up": "GSIS (insulin levels secreted): dose or concentration left out as unconfirmed", "conditions": "EndoC-βH2 cells infected with Cre, versus vehicle"}, "EndoC-βH2 cells [3]": {"system": "EndoC-βH2 cells", "test": "Mitochondrial activity (membrane potential) by TMRE staining, FACS, of Cre-infected EndoC-βH2 cells", "conditions": "EndoC-βH2 cells three weeks after Cre infection"}}, "data": [{"smiles": "CCC(=O)N1CCN(c2ccc(-n3c(=O)ccc4cnc5ccc(-c6cnc7ccccc7c6)cc5c43)cc2C(F)(F)F)CC1", "note": "[Torin1]", "values": [{"measurement": "cell size (FSC)", "setting": "EndoC-βH2 cells [1]", "value": "reduced size"}, {"measurement": "levels of insulin secretion", "setting": "EndoC-βH2 cells [2]; 250 nM Torin1 starting 3 days after infection, for 3 weeks, low glucose 2.8 mM then high glucose 16.7 mM for 1 hour", "value": "lower levels of insulin secretion"}, {"measurement": "mitochondrial activity (TMRE staining)", "setting": "EndoC-βH2 cells [3]; 250 nM Torin1 versus vehicle", "value": "reduced"}]}, {"smiles": "O=C(Nc1ccccc1)c1cc([N+](=O)[O-])ccc1Cl", "note": "[GW9662]", "values": [{"measurement": "GSIS (insulin levels secreted)", "setting": "EndoC-βH2 cells [2]; GW9662 twice a week for 3 weeks", "value": "reduced GSIS"}, {"measurement": "mitochondrial activity (TMRE staining)", "setting": "EndoC-βH2 cells [3]; GW9662 50 mM twice a week, versus vehicle", "value": "reduced"}]}]}
